We go through 3 compounds from US4782070A, “Cerebral dysfunction therapeutic agent, which comprises a dihydropyridine compound” (Fujisawa Pharmaceutical Co., Ltd., priority 1986, dated 1988).

Test [1] concerns isolated canine basilar artery. Description: Effect on isolated canine basilar artery (relaxation of KCl contraction). Details: species or system mongrel dogs. The note with it: Canis lupus familiaris; dose inducing 50% relaxation; contraction by 35 mM KCl; papaverine 0.1 mM = 100%; mean±standard error; read-out: ED50 (the source's name). How it is done:
Under pentobarbital sodium anesthesia (35 mg/kg, ip or 30 mg/kg, iv), the basilar arteries (outside diameter: 1.0-1.5 mm) were isolated from mongrel dogs (weighing 8-18 kg) of either sex (6 dogs per group) and cut spirally (width 1 mm×length 15-20 mm). The spiral strips were suspended in a Tyrode's solution aerating with a gas mixture of 95% oxygen and 5% carbon dioxide, and the resting tension was adjusted to 0.5 g. After 1 hour, 35 mM potassium chloride was added to the organ bath to contract the arteries. The cumulative concentrations of the test compound, dissolved in a mixture of ethanol, polyethylene glycol and distilled water, were then added. Finally 0.1 mM papaverine was given to determine maximum relaxation.

Another test has as its system vertebral artery of dog. Description: Effect on blood flow of the vertebral artery of dog. It is filed as in vivo, Mongrel dogs. Here is the method:
Mongrel dogs of either sex (5-10 dogs per group), weighing 8-18 kg, were anesthetized with pentobarbital sodium (35 mg/kg, ip) and an electromagnetic flowprobe was fitted to the right vertebral artery and the blood flow of the vertebral artery was measured by a flow meter. Polyethylene cannulae were inserted into the femoral artery for measurement of blood pressure and into the femoral vein or the duodenum (after celiotomy) for administration of test compounds respectively.
Test compounds were dissolved in a mixture of ethanol, polyethylene glycol and distilled water, and administered in a volume of 0.2 ml/kg (iv) or 0.5 ml/kg (id). Incidentally, dogs were fasted for 18 hours in case of intraduodenum administration.

For test [2], the system named is ischemic cerebral cortex of rat. Description: Effect on blood flow in ischemic cerebral cortex of rat. Type of test: in vivo, Male Wistar rats. The note with it: po; for Increase in Blood Flow (Time-course of Vasodilation in Cortex of Occlusion Side): 1 mg/kg. How it is done: Male Wistar rats (5 rats per group), weighing 229-300 g, were anesthetized with thiopental sodium (50 mg/kg, ip). A skin incision was made in the middle of the right external auditory canal and the orbit, and a craniectomy (diameter: 2-2.5 mm) was made, using a dental drill, in the middle of the foramen ovale and the foramen opticum. After the dura was opened, the middle cerebral artery was exposed and occluded by electrocauterization using bipolar cautery.
After closure of the surgical wound, aminobenzylpenicillin (200 mg/kg) was divisionally administered into the operated part and subcutaneously.
One week after the surgery, the rats were anesthetized with urethane (1.25 g/kg, sc) and cannulae for artificial respiration and for measurement of blood pressure were inserted into the trachea and into the right femoral artery respectively, and then a stomach tube for administration of test compounds was inserted into stomach. The rats were fixed to stereotactic head-holders and craniectomies (diameter: 0.5 mm) were made on both sides of parietal skull, and then electrodes for measurement of local cerebral blood flow were inserted into right and left cerebral cortex (A=5, L=±5.0, H=2).
The blood flows of the ischemic (occlusion side) and non-ischemic (non-occlusion side) cerebral cortex of the rats used in this test were 17.4±4.5 and 51.4±1.2 ml/brain 100 g/minute, respectively. Test Compounds were dissolved in 100% polyethylene glycol and administered orally in a volume of 1 ml/kg.
The blood flow was calculated according to the following calculating formula after obtaining a half life (t1/2) from the clearance curve. [formula] λ: partition coefficient of hydrogen gas between blood and tissues (=1.0)
t1/2: a half life of concentration of hydrogen gas in brain

The next test relates to basilar artery. Description: Remitting effect on a model of vasospasm after subarachnoid hemorrhage. Type of test: in vivo, Mongrel cats. The note with it: femoral vein. Here is the method: Mongrel cats of either sex (3-5 cats per group) were anesthetized with pentobarbital sodium (60 mg/kg, sc) and tracheal cannulae were inserted, and the test was carried out under spontaneous respiration. Following transcervical, transclival approach, the canine basilar artery was exposed by opening the dura and arachnoid maters, using an operating microscope. 30 Minutes after the surgery, a mixture of an equal volume of blood and cerebrospinal fluid (CSF) (0.2 ml) preincubated under an aseptic condition (37° C., 6-7 days) was applied on the surface of canine basilar artery. At the same time, the test compound [dissolved in a mixture of ethanol, polyethylene glycol and distilled water (2:1:7, v/v/v), administration volume: 0.2 ml] or only vehicle was administered into the right femoral vein. After 10 minutes, the blood-CSF mixture was carefully removed and microphotographs of the canine basilar artery were taken with the passage of time, and the inside diameter of the artery was measured from the microphotographs.

The subject of test [3] is Production of Lipid Peroxide in cerebral mitochondria of rat. Description: Effect on Production of Lipid Peroxide in cerebral mitochondria of rat. Type of test: biochemical, male Wistar rats. The note with it: 37° C., 1 hour. Here is the method:
Cerebral mitochondria of male Wistar rats were isolated and mixed with a mixture of ascorbic acid (100 μM), ferrous sulfate (10 μM), ferric sulfate (20 μM) and test compound, and the mixture was incubated at 37° C. for 1 hour. The amount of malondialdehyde produced in the incubated mixture was measured by thiobarbituric acid method [Shimada et al., Biochim. Biophy. Acta, vol. 489, pp 163-172 (1977)].

In test [4] the test system is rat with transient cerebral ischemia. The note with it: cited from earlier work.
Another test relates to cerebral circulation. The conditions noted are these: cited from earlier work.
For the next test, the system named is ischemic brain. The note with it: Occluded rat, 1.0 mg/kg sc once a day for 3 days.

SMILES strings stand for the structures.

Procedure for ischemic brain: Test compounds (1.0 mg/kg) (dissolved in polyethylene glycol, administration volume: 1 ml/kg) or vehicle was administered sc once a day for 3 days beginning from the fifth day after the surgery. One hour after the last administration, the rats were frozen in liquid nitrogen and then the whole brains of the both side excluding the cerebellum were isolated separately. The right hemisphere was homogenized with ice-cooled 6% perchloric acid (20 times in volume), centrifuged (3000 r.p.m., 10 minutes at 4° C.) and then the supernatant was neutralized with 5M potassium carbonate.
After the neutralization, the supernatant was centrifuged again and the concentrations of adenosine triphosphate (ATP) and lactic acid included in the resulting supernatant were measured by enzymatic assay.

In the case of `COC(=O)C1=C(C#N)NC(C)=C(C(=O)OC(C)C)C1c1cccc([N+](=O)[O-])c1` (stereo not drawn) [Dihydropyridine Compound A, Isopropyl ester of 6-cyano-5-methoxycarbonyl-2-methyl-4-(3-nitrophenyl)-1,4-dihydropyridine-3-carboxylic acid], the EC50 in test [1] was determined as 0.33 ± 0.04 nM. Moreover, the “Time-course of Changes of Blood Flow” value in the test on vertebral artery of dog (32 μg/kg, iv, 5 minutes) is 109.6 ± 18.3%; in the test with vertebral artery of dog (32 μg/kg, iv, 10 minutes), 96.7 ± 16.2%; with vertebral artery of dog (32 μg/kg, iv, 20 minutes) it was 81.3 ± 15.5%; with vertebral artery of dog (32 μg/kg, iv, 30 minutes) it was 77.7 ± 12.5%; with vertebral artery of dog (32 μg/kg, iv, 60 minutes), 71.2 ± 17.5%; with vertebral artery of dog (32 μg/kg, iv, 90 minutes) it was 61.4 ± 25.7%. For the same compound, the “Time-course of Changes of Blood Flow” value worked out at 52.1 ± 23.1% in the test on vertebral artery of dog (32 μg/kg, iv, 120 minutes) and 31.0 ± 15.7% in the test on vertebral artery of dog (32 μg/kg, iv, 180 minutes). Also, the “Maximum Changes of Blood Flow” value was found to be 17.2 ± 6.0% with vertebral artery of dog (id, 10 μg/kg); 39.7 ± 13.1% with vertebral artery of dog (id, 32 μg/kg); 89.3 ± 11.5% in the test with vertebral artery of dog (id, 100 μg/kg); 39.2 ± 7.2% in the test on vertebral artery of dog (iv, 3.2 μg/kg); 86.4 ± 20.6% with vertebral artery of dog (iv, 10 μg/kg); 109.6 ± 18.3% with vertebral artery of dog (iv, 32 μg/kg). The “Increase in Blood Flow (Time-course of Vasodilation in Cortex of Occlusion Side)” value was determined as 17.8 ± 2.4% in test [2] (15 minutes); 27.4 ± 3.7% in test [2] (30 minutes); 32.6 ± 4.6% in test [2] (45 minutes); 28.3 ± 2.5% in test [2] (60 minutes); 21.6 ± 6.4% in test [2] (90 minutes); 17.5 ± 7.3% in test [2] (120 minutes). Further, the “Maximum Increase in Blood Flow” value in test [2] (Non-occlusion side, 0.1 mg/kg) was 13.6 ± 1.7%; in test [2] (Non-occlusion side, 1.0 mg/kg) it was 26.1 ± 4.8%; in test [2] (Occlusion side, 0.1 mg/kg), 12.6 ± 3.1%; in test [2] (Occlusion side, 1.0 mg/kg) it was 32.6 ± 4.6%. Besides, the “Time-course of Changes of the Diameter of the Artery” value in the test with basilar artery (10 μg/kg, 15 minutes) was 17.0 ± 4.5%; with basilar artery (10 μg/kg, 30 minutes), 17.1 ± 4.6%; with basilar artery (10 μg/kg, 45 minutes), 18.3 ± 5.3%; with basilar artery (10 μg/kg, 60 minutes), 17.8 ± 3.8%; in the test on basilar artery (10 μg/kg, 90 minutes), 15.5 ± 3.2%; in the test with basilar artery (10 μg/kg, 120 minutes) it was 17.1 ± 5.1%. The “Time-course of Changes of the Diameter of the Artery” value in the test with basilar artery (100 μg/kg, 15 minutes) is 16.6 ± 7.6%; in the test with basilar artery (100 μg/kg, 30 minutes), 15.1 ± 5.1%; with basilar artery (100 μg/kg, 45 minutes), 25.9 ± 7.5%; in the test on basilar artery (100 μg/kg, 60 minutes), 24.4 ± 7.5%; in the test on basilar artery (100 μg/kg, 90 minutes), 21.6 ± 7.3%; in the test on basilar artery (100 μg/kg, 120 minutes), 25.5 ± 7.9%. The “Inhibition of Production of Lipid Peroxide” value in test [3] (2.6 × 10^-4 (M)) came to 100.0%; in test [3] (2.6 × 10^-5 (M)), 96.94 ± 1.03%.

As for `COCCOC(=O)C1=C(C)NC(C)=C(C(=O)OC(C)C)C1c1cccc([N+](=O)[O-])c1` (stereo not drawn) [nimodipine], in test [4] (after reperfusion), the “brain ATP content after reperfusion” value is given as “improves” and the electroencephalogram after reperfusion entry is given as “improves”. Moreover, the “electroencephalogram and brain ATP content during ischemia” value in test [4] (during ischemia) was “not improve them during ischemia”. In addition, in test [4] (same model), the “liberation of free fatty acids” value was “no effect”. For the same compound, the “improving activity of cerebral circulation” value with cerebral circulation is listed as “have improving activity of cerebral circulation”.

Turning to `COC(=O)C1=C(C)NC(C)=C(C(=O)OCCN(C)Cc2ccccc2)C1c1cccc([N+](=O)[O-])c1` (stereo not drawn) [Nicardipine, reference compound], the EC50 in test [1] worked out at 0.7 ± 0.07 nM. Also, the “Time-course of Changes of Blood Flow” value with vertebral artery of dog (32 μg/kg, iv, 5 minutes) came out at 91.7 ± 14.8%; in the test on vertebral artery of dog (32 μg/kg, iv, 10 minutes) it was 73.4 ± 15.2%; in the test on vertebral artery of dog (32 μg/kg, iv, 20 minutes), 48.1 ± 13.2%; in the test with vertebral artery of dog (32 μg/kg, iv, 30 minutes), 37.0 ± 10.4%; with vertebral artery of dog (32 μg/kg, iv, 60 minutes), 23.0 ± 17.7%; in the test on vertebral artery of dog (32 μg/kg, iv, 90 minutes), 8.2 ± 10.8%. The “Time-course of Changes of Blood Flow” value with vertebral artery of dog (32 μg/kg, iv, 120 minutes) is reported as -0.5 ± 8.9%. Moreover, the “Maximum Changes of Blood Flow” value in the test on vertebral artery of dog (id, 320 μg/kg) was 33.7 ± 14.3%; in the test on vertebral artery of dog (id, 1000 μg/kg), 56.0 ± 28.5%; in the test on vertebral artery of dog (id, 3200 μg/kg) it was 131.3 ± 36.0%; with vertebral artery of dog (iv, 3.2 μg/kg), 31.4 ± 5.2%; with vertebral artery of dog (iv, 10 μg/kg), 77.8 ± 17.4%; in the test on vertebral artery of dog (iv, 32 μg/kg), 91.7 ± 14.8%. In addition, the “Increase in Blood Flow (Time-course of Vasodilation in Cortex of Occlusion Side)” value in test [2] (15 minutes) is reported as 6.2 ± 1.8%; in test [2] (30 minutes) it was 13.4 ± 2.8%; in test [2] (45 minutes), 15.9 ± 2.5%; in test [2] (60 minutes), 11.6 ± 2.9%; in test [2] (90 minutes), 8.8 ± 4.2%; in test [2] (120 minutes), 9.1 ± 5.3%. Besides, the “Maximum Increase in Blood Flow” value in test [2] (Non-occlusion side, 0.1 mg/kg) worked out at 8.9 ± 3.2%; in test [2] (Non-occlusion side, 1.0 mg/kg), 20.5 ± 5.1%; in test [2] (Occlusion side, 0.1 mg/kg) it was 6.4 ± 1.3%; in test [2] (Occlusion side, 1.0 mg/kg), 15.9 ± 2.5%. In the test with ischemic brain (vehicle 1.97 ± 0.06, normal rat 2.38 ± 0.13), this compound gave an ATP of 1.92 ± 0.11 μmol/brain 1 g. In the test on ischemic brain (vehicle 3.84 ± 0.28, normal rat 1.83 ± 0.18), the Lactic acid is reported as 3.84 ± 0.14 μmol/brain 1 g. Besides, in the test with cerebral circulation, the “duration of improving activity of cerebral circulation” value is “short”. Further, the “improving activity of cerebral circulation” value in the test with cerebral circulation is reported as “have improving activity of cerebral circulation”.
